Data on twelve compounds can be found in patent US9932327B2, “Rohitukine analogs as cyclin-dependent kinase inhibitors and a process for the preparation thereof” (COUNCIL OF SCIENTIFIC AND INDUSTRIAL RESEARCH, priority 2013, dated 2018).

Converted amounts (≈) assume the structure as drawn. Where two headings read alike, the source gives them in different places. A value given as a limit tells only on which side of the number the result lay.

Data set [1] is described as follows: Thermodynamic equilibrium solubility. Type of data set: physicochemical. The note with it: 25 °C, thermodynamic from solid. On the procedure: The compounds were first dissolved in methanol to prepare stock solutions (100 and 1000 μg/mL). Different concentrations of stock solutions were pipetted into the 96-well plates and the solvent was evaporated to ensure that solid drug was present in the beginning of the experiment. […] The plates were kept overnight for equilibration of drug in medium. Later, the plates were centrifuged at 3000 rpm for 15 min (Jouan centrifuge BR4i). Supernatant (50 μl) was pipetted into UV 96-well plates (Corning® 96 Well Clear Flat Bottom UV-Transparent Microplate) for analyses with plate reader (SpectraMax Plus384) at λmax of 350 nm. The analyses were performed in triplicate for each compound. The solubility curve of concentration (μg/mL) vs absorbance was plotted to find out saturation point and the corresponding concentration was noted (Heikkilä, T. et al. Int. J. Pharm. 2011, 405, 132).

The test system of data set [2] is Ehrlich solid tumor (EAC cells). Briefly: In vivo anticancer activity in Ehrlich solid tumor mice model. Also on record: species or system Swiss mice. On the procedure:
Ehrlich ascites carcinoma (EAC) cells were collected from the peritoneal cavity of the swiss mice harbouring 8-10 days old ascitic tumor. 1×10^7 EAC cells were injected intramuscularly in right thigh of 31 Swiss male mice selected for the experiment on day 0. The next day, animals were randomized and divided into four groups. Three treatment groups contained 7 animals each and one control group contained 10 animals. Treatment was given as follows:
Group I: Compound 33 (50 mg/kg i/p) from day 1-9.
Group II: Compound 33 (70 mg/kg i/p) from day 1-9.
The third treatment group was treated with 5-fluorouracil (22 mg/kg, i.p) from day 1-9 and it served as positive control. The control group was similarly administered normal saline (0.2 ml, i.p.) from day 1-9. On day 9 & 13, tumor bearing thigh of each animal was shaved and longest and shortest diameters of the tumor were measured with the help of vernier caliper. Tumor weight of each animal was calculated using the following formula.
The percent tumor growth inhibition was calculated on day 13 by comparing the average values of treated groups with that of control group. Tumor growth in saline treated control animals was taken to be 100%.

Data set [3] relates to HL-60 (Leukemia). Description: Cytotoxicity, MTT assay, HL-60. In kind it is cell-based. Particulars: Homo sapiens; for inhibition at 10 µM: read-out: Cell Growth Inhibition (%). On the procedure:
(§1) Compounds proposed in the present invention were evaluated for their cytotoxic effect against panel of six cancer cell line viz. HL-60 (Leukemia), PC-3 (Prostate), A-375 (Melanoma), MIAPaCa-2 (pancreatic), MCF-7 (Breast) and Caco-2 (Colon) using MTT assay. In each well of a 96-well plate, 3×10^3 cells were grown in 100 μL of medium. After 24 h, each test molecules were added to achieve a final concentration of 10 to 0.01 μmol/L, respectively. After 48 h of treatment, 20 μL of 2.5 mg/mL MTT (Organics Research, Inc.) solution in phosphate buffer saline was added to each well. After 48 h, supernatant was removed and formazan crystals were dissolved in 200 μL of DMSO. Absorbance was then measured at 570 nm using an absorbance plate reader (Bio-Rad Microplate Reader). Data are expressed as the percentage of viable cells in treated relative to non-treated conditions.

For data set [4], the system named is PC-3 (Prostate). Description: Cytotoxicity, MTT assay, PC-3. Type of data set: cell-based. Particulars: for inhibition at 10 µM: read-out: Cell Growth Inhibition (%). On the procedure: as §1
Data set [5] deals with A-375 (Melanoma). Briefly: Cytotoxicity, MTT assay, A-375. Type of data set: cell-based. The note with it: Homo sapiens; for inhibition at 10 µM: read-out: Cell Growth Inhibition (%). The procedure:
as §1

Data set [6] relates to Caco-2 (Colon). Briefly: Cytotoxicity, MTT assay, Caco-2. Type of data set: cell-based. Particulars: Homo sapiens; for inhibition at 10 µM: read-out: Cell Growth Inhibition (%). The procedure: as §1
Data set [7] concerns the target CDK-2/cyclin A (Homo sapiens (Human), UniProt P24941). Briefly: Inhibition of CDK-2/cyclin A. Type of data set: biochemical.
The test system of data set [8] is MCF-7 (Breast). Description: Cytotoxicity, MTT assay, MCF-7. In kind it is cell-based. Particulars: Homo sapiens; for IC50: MCF7; for inhibition at 10 µM: MCF7, 10 μM, read-out: Cell Growth Inhibition (%). On the procedure:
as §1

Data set [9] concerns the target CDK-9/Cyclin T1 (Homo sapiens (Human), UniProt P50750). Briefly: Inhibition of CDK-9/cyclin T1. Particulars: IC50 (nM) CDK-9/T1.
Experimental: (50-1000 cpm/pmole) and incubated for 30 mM at room temperature. Assays were stopped by addition of 5 μl of 0.5 M (3%) orthophosphoric acid and then harvested onto P81 Unifilter plates with a wash buffer of 50 mM orthophosphoric acid.
Data set [10] concerns MIAPaCa-2 (pancreatic). Briefly: Cytotoxicity, MTT assay, MIAPaCa-2. Type of data set: cell-based. Particulars: Homo sapiens, MIA PaCa-2, read-out: Cell Growth Inhibition (%). The procedure:
as §1

For data set [11], the system named is CDK1/cyclin B. The note with it: Gray, N. et al. Curr. Med. Chem. 1999, 6, 859; cited from earlier work.
[12] abbreviates: water, 25±1° C., read-out: Solubility in μg/mL, Water.
[13] abbreviates: phosphate buffer saline (PBS), aqueous buffer, read-out: Solubility in μg/mL, PBS.
Where [14] appears, read: simulated gastric fluid (SGF), simulated gastric fluid, read-out: Solubility in μg/mL, SGF.
Where [15] appears, read: simulated intestinal fluid (SIF), fassgf or other biorelevant, read-out: Solubility in μg/mL, SIF.
[16] abbreviates: 22 mg/kg i/p day 1-9, positive control.

CDK-9/Cyclin T1, sequence (P50750 whole entry): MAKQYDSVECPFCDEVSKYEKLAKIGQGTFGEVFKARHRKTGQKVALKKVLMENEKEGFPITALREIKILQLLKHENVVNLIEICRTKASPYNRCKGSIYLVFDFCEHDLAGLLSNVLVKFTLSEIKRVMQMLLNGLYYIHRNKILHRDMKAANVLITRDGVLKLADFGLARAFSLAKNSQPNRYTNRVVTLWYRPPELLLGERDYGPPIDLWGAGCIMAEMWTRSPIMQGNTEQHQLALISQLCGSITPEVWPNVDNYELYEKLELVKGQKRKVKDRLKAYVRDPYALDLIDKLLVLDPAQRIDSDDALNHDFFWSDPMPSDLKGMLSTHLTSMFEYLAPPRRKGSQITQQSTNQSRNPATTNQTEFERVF
CDK-9/Cyclin T1, sequence (O60563 whole entry partner): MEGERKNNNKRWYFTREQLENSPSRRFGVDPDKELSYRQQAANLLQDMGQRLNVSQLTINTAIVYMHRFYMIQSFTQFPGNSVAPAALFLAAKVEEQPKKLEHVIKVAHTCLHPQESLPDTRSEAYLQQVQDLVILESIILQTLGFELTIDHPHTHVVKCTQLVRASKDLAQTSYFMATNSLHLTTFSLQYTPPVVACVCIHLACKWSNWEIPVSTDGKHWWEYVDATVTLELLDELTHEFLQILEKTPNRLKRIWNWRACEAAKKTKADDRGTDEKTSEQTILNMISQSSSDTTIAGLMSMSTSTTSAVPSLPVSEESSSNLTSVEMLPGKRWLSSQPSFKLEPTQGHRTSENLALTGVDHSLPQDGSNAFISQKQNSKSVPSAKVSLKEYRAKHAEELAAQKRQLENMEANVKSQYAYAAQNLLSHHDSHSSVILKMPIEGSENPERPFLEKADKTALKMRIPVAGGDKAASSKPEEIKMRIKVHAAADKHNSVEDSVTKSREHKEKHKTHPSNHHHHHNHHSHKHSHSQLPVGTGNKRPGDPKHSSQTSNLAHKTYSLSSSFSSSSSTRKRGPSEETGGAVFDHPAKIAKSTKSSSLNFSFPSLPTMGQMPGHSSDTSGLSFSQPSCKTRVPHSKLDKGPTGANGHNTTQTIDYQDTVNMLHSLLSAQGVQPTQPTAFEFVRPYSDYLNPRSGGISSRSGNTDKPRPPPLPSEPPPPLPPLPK

Take `CN1CCC(c2c(O)cc(O)c3c(=O)cc(/C=C/c4c(F)c(F)c(F)c(F)c4F)oc23)C(O)C1.Cl` (stereo not drawn) [Hydrochloride salt of 34, 2-(2,3,4,5,6-pentafluorostyryl)-5,7-dihydroxy-8-(3-hydroxy-1-methylpiperidin-4-yl)-4H-chromen-4-one hydrochloride]: the solubility is > 1500 µg/mL in data set [1] (setting [12]), 40 µg/mL in data set [1] (setting [13]), 80 µg/mL in data set [1] (setting [14]) and 40 µg/mL in [1] (setting [15]).
Take `O=c1[nH]cc(F)c(=O)[nH]1` [Compound 5-FU, 5-fluorouracil, reference compound]: in [2] (setting [16]), the “Day 13 % Tumor Growth Inhibition” value was 58.50%, the “Day 13 Av. Tumor weights” value is listed as 613.71 mg and the Mortality is 0/7.
With `CN1CCC(c2c(O)cc(O)c3c(=O)cc(/C=C/c4c(Cl)cccc4Cl)oc23)C(O)C1` (stereo not drawn) [Compound 33, 2-(2,6-dichlorostyryl)-5,7-dihydroxy-8-(3-hydroxy-1-methylpiperidin-4-yl)-4H-chromen-4-one], the 50% inhibitory concentration (IC50) in [3] came to 0.9 µM; in [4], 41 µM; in [5], 8 µM; in data set [6], 7 µM; in data set [7], 16 nM; in data set [8] it was 4 µM. In data set [9], this compound had a half-maximal inhibitory concentration (IC50) of 2 nM. Further, the solubility in [1] (setting [12]) is 5 µg/mL (≈ 10.8 µM); in data set [1] (setting [13]), 5 µg/mL (≈ 10.8 µM); in [1] (setting [14]), 40 µg/mL (≈ 86.5 µM); in data set [1] (setting [15]), 20 µg/mL (≈ 43.3 µM). Further, the “Day 13 % Tumor Growth Inhibition” value in data set [2] (50 mg/kg i/p day 1-9) came to 33.11%; in [2] (70 mg/kg i/p day 1-9), 37.65%. Besides, the “Day 13 Av. Tumor weights” value was determined as 989.12 mg in [2] (50 mg/kg i/p day 1-9) and 922.0 mg in data set [2] (70 mg/kg i/p day 1-9). In addition, the Mortality in [2] (50 mg/kg i/p day 1-9) and in data set [2] (70 mg/kg i/p day 1-9) was 0/7 in each case.
Take `CN1CCC(c2c(O)cc(O)c3c(=O)cc(/C=C/c4c(F)c(F)c(F)c(F)c4F)oc23)C(O)C1` (stereo not drawn) [Compound 34, 2-(2,3,4,5,6-pentafluorostyryl)-5,7-dihydroxy-8-(3-hydroxy-1-methylpiperidin-4-yl)-4H-chromen-4-one]: the concentration for half-maximal inhibition (IC50) in [3] stood at 3 µM; in data set [4], 30 µM; in data set [5] it was 8 µM; in [6] it was 7 µM; in data set [7], 608 nM; in data set [8] it was 4 µM. The compound also displayed a concentration for half-maximal inhibition (IC50) in [9] of 12 nM. Also, the solubility in data set [1] (setting [12]) was 5 µg/mL (≈ 10.3 µM); in data set [1] (setting [13]), 10 µg/mL (≈ 20.7 µM); in [1] (setting [14]), 80 µg/mL (≈ 165 µM); in data set [1] (setting [15]) it was 20 µg/mL (≈ 41.4 µM).
For the compound `Cc1cc(=O)c2c(O)cc(O)c(C3CCN(C)CC3O)c2o1` (stereo not drawn) [Compound 1, 5,7-dihydroxy-8-(3-hydroxy-1-methylpiperidin-4-yl)-2-methyl-4H-chromen-4-one, reference compound], the IC50 in data set [3] is 6 µM; in [7] it was > 10000 nM; in data set [9], 550 nM. The inhibition at 10 µM is 83.3% in data set [3]; 32.9% in data set [4]; 41.2% in data set [5]; 11.9% in [6]; 1.46% in data set [10]; 15.4% in data set [8].
`CN1CCC(c2c(O)cc(O)c3c(=O)cc(/C=C/c4c(Cl)cccc4Cl)oc23)C(O)C1.Cl` (stereo not drawn) [Hydrochloride salt of 33, 2-(2,6-dichlorostyryl)-5,7-dihydroxy-8-(3-hydroxy-1-methylpiperidin-4-yl)-4H-chromen-4-one hydrochloride]: the solubility was > 1500 µg/mL in [1] (setting [12]), 40 µg/mL in [1] (setting [13]), 40 µg/mL in [1] (setting [14]) and 10 µg/mL in data set [1] (setting [15]).
With `CN1CCC(c2c(O)cc(O)c3c(=O)cc(/C=C/c4cccc(F)c4)oc23)C(O)C1` (stereo not drawn) [Compound 35, 2-(3-fluorostyryl)-5,7-dihydroxy-8-(3-hydroxy-1-methylpiperidin-4-yl)-4H-chromen-4-one], the 50% inhibitory concentration (IC50) in [7] was 466 nM; in data set [9] it was 30 nM.
As to `Cc1cc(=O)c2c(O)cc(OCc3ccc([N+](=O)[O-])cc3)c(C3CCN(C)CC3O)c2o1` (stereo not drawn) [Compound 8, 7-(4-Nitrobenzyloxy)-5-hydroxy-8-(3-hydroxy-1-methylpiperidin-4-yl)-2-methyl-4H-chromen-4-one], the inhibition at 10 µM in data set [3] came out at 14.4%; in data set [4] it was 23%; in data set [5] it was 37.5%; in data set [6] it was 13.6%; in data set [10] it was 12.4%; in data set [8] it was 39.3%.
With `CN1CCC(c2c(O)cc(O)c3c(=O)cc(/C=C/c4cccc(Cl)c4)oc23)C(O)C1` (stereo not drawn) [Compound 28, 2-(3-Chlorostyryl)-5,7-dihydroxy-8-(3-hydroxy-1-methylpiperidin-4-yl)-4H-chromen-4-one], the inhibition at 10 µM came to 24.3% in data set [3]; 53.7% in [4]; 65.9% in data set [5]; 27.5% in data set [6]; 40.3% in data set [10]; 80.4% in data set [8]. In addition, the half-inhibitory concentration (IC50) was 10 µM in data set [4], 4 µM in data set [5] and 2 µM in [8].
On to `Cc1cc(=O)c2c(O)cc(OCc3ccco3)c(C3CCN(C)CC3O)c2o1` (stereo not drawn) [Compound 5, 7-((Furan-2-yl)methoxy)-5-hydroxy-8-(3-hydroxy-1-methylpiperidin-4-yl)-2-methyl-4H-chromen-4-one], for which the inhibition at 10 µM in data set [3] is 31.9%; in [4] it was 14.1%; in data set [5], 36.8%; in [6], 16.9%; in data set [10] it was 6.61%; in data set [8], 5.73%.
Regarding `CN(C)c1ncnc2nc[nH]c12` [dimethylaminopurine], the 50% inhibitory concentration (IC50) in data set [11] is 120 µM.
With `Cc1oc2c(C3CCN(C)CC3O)c(O)cc(O)c2c(=O)c1C(O)c1c(F)cccc1Cl` (stereo not drawn) [Compound 21, 3-((2-Chloro-6-fluorophenyl)(hydroxy)methyl)-5,7-dihydroxy-8-(3-hydroxy-1-methylpiperidin-4-yl)-2-methyl-4H-chromen-4-one], the inhibition at 10 µM in [3] turned out to be 25.4%; in data set [4] it was 72.5%; in [5] it was 20.8%; in data set [6], 5.94%; in data set [10] it was 8.58%; in data set [8], 13.6%.
